Measurements taken from patent US12661410B2, “Compounds for targeted degradation of RET” (C4 Therapeutics, Inc., priority 2020, dated 2026).
Substitutions are numbered along the chain they refer to. Like-named read-outs stand apart in the source and are kept apart here.

Assays:
RET(KD: 658-1114 G810R) = molecular target: T1, RET(KD: 658-1114 G810R) (Homo sapiens, UniProt P07949, G810R); assay: HiBiT-Degradation, RET G810R degradation assay (Nano-Glo HiBiT Lytic), 293T.165 cells; format: cell-based; conditions: for Emax / DC50: 6.0 hours; for Emax: % remaining protein, read-out: 293T.165 RET(KD: 658-1114 G810R) 6.0 hours (Emax); for DC50: read-out: 293T.165 RET(KD: 658-1114 G810R) 6.0 hours (DC50)
T1 construct: 658-1114; expressed in transfected cells; host or cells: 293T.165 (293T cells, generated in-house)
T1 sequence (P07949 658-1114 G810R): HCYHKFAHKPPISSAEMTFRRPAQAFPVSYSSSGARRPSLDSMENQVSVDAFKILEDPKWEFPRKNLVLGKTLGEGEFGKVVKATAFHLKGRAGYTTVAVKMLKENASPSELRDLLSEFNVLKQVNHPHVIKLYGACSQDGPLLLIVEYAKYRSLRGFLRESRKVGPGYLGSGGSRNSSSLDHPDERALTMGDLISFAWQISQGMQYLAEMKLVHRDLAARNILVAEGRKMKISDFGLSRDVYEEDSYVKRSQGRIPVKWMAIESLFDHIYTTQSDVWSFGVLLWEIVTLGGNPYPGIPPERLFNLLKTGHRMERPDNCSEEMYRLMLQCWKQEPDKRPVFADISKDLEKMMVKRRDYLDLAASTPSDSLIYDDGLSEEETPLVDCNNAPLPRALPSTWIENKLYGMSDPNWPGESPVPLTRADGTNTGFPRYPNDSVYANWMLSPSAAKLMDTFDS
How it was run: (§1)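 Luminescence readout of HiBiT-tagged RET kinase domain remaining after 6 h compound exposure. Cells: 293T.144 (wild type) or 293T.165 (G810R), 11 half-log doses up to 10 μM, duplicates. DC50 and Emax as % remaining protein taken from curve fits.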

RET (658-1114) = molecular target: T2, RET (658-1114) (Homo sapiens, UniProt P07949); assay: HiBiT-Degradation, RET wild-type degradation assay (Nano-Glo HiBiT Lytic), 293T.144 cells; format: cell-based; conditions: for Emax / DC50: 6.0 hours; for Emax: read-out: 293T.144 RET (658-1114) 6.0 hours (Emax); for DC50: read-out: 293T.144 RET (658-1114) 6.0 hours (DC50)
T2 construct: 658-1114; expressed in transfected cells; host or cells: 293T.144 (293T cells, generated in-house)
T2 sequence (P07949 658-1114): T1 sequence (P07949 658-1114 G810R) with R153G
How it was run: as §1

[1] = half-maximal degradation concentration

| SMILES | 293T.165 RET(KD: 658-1114 G810R) 6.0 hours (IP) [nM] (RET(KD: 658-1114 G810R)) | Emax (RET(KD: 658-1114 G810R)) [%] | DC50 (RET(KD: 658-1114 G810R); [1]) [nM] | 293T.144 RET (658-1114) 6.0 hours (IP) [nM] (RET (658-1114)) | Emax (RET (658-1114); % remaining protein) [%] | DC50 (RET (658-1114); [1]) [nM] | 293T.165 RET(KD: 658-1114 G810R) 6.0 hours (Emax) (RET(KD: 658-1114 G810R); HiBiT-Degradation) | 293T.165 RET(KD: 658-1114 G810R) 6.0 hours (IP) [nM] (RET(KD: 658-1114 G810R); HiBiT-Degradation) | DC50 (RET(KD: 658-1114 G810R); HiBiT-Degradation) [nM] | 293T.144 RET (658-1114) 6.0 hours (IP) [nM] (RET (658-1114); HiBiT-Degradation) | DC50 (RET (658-1114); HiBiT-Degradation) [nM] | Emax (RET (658-1114); HiBiT-Degradation) [%] |
| --- | --- | --- | --- | --- | --- | --- | --- | --- | --- | --- | --- | --- |
| CCC1(C(=O)NC2CCC2)CCN(c2ccc(-c3nc(-c4cnn([C@H]5CC[C@H](N6CCC(c7ccc8c(N9CCC(=O)NC9=O)nn(C)c8c7F)CC6)CC5)c4)cn4ncc(C#N)c34)cn2)CC1 (single isomer, unassigned) [Compound 138, 1-(5-(3-Cyano-6-(1-((1r, 4r)-4-(4-(3-(2,4-dioxotetrahydropyrimidin-1(2H)-yl)-7-fluoro-1-methyl-1H-indazol-6-yl)piperidin-1-yl)cyclohexyl)-1H-pyrazol-4-yl)pyrazolo[1,5-a]pyrazin-4-yl)pyridin-2-yl)-N-cyclobutyl-4-ethylpiperidine-4-carboxamide] | ++++ (<50 nM = ++++) | < 30 | < 100 | ++++ (<50 nM = ++++) | < 30 | < 50 | – | – | – | – | – | – |
| N#Cc1cnn2cc(-c3ccc(N4CCN(C(=O)CN5CCC(c6ccc(NC7CCC(=O)NC7=O)cc6F)CC5)CC4)cc3)cc(-c3ccc(N4CCN(C(=O)Cc5ccc(F)cn5)CC4)nc3)c12 (stereo not shown) [Compound 16, 6-[4-[4-[2-[4-[4-[(2,6-dioxo-3-piperidyl)amino]-2-fluoro-phenyl]-1-piperidyl]acetyl]piperazin-1-yl]phenyl]-4-[6-[4-[2-(5-fluoro-2-pyridyl)acetyl]piperazin-1-yl]-3-pyridyl]pyrazolo[1,5-a]pyridine-3-carbonitrile] | – | < 30 | < 100 | – | – | – | ++++ (< 30% = ++++) | ++++ (< 50 nM = ++++) | < 100 | ++++ (< 50 nM = ++++) | < 50 | < 30 |
| N#Cc1cnn2cc(-c3cnn(C4CCN(C(=O)CC5(O)CCN(c6ccc(NC7CCC(=O)NC7=O)cc6F)CC5)CC4)c3)nc(-c3ccc(N4CCN(C(=O)c5cccnc5)CC4)nc3)c12 (stereo not shown) [Compound 106, 6-[1-[1-[2-[1-[4-[(2,6-dioxo-3-piperidyl)amino]-2-fluoro-phenyl]-4-hydroxy-4-piperidyl]acetyl]-4-piperidyl]pyrazol-4-yl]-4-[6-[4-(pyridine-3-carbonyl)piperazin-1-yl]-3-pyridyl]pyrazolo[1,5-a]pyrazine-3-carbonitrile] | ++++ (<50 nM = ++++) | < 50 | < 100 | ++++ (<50 nM = ++++) | < 30 | < 50 | – | – | – | – | – | – |
| CCC1(C(=O)NC2CCC2)CCN(c2ccc(-c3nc(-c4cnn([C@H]5CC[C@H](N6CCN(c7cc(OC)c(N[C@@H]8CCC(=O)NC8=O)cc7F)CC6)CC5)c4)cn4ncc(C#N)c34)cn2)CC1 (single isomer, unassigned) [Compound 135] | ++++ (<50 nM = ++++) | < 30 | < 50 | ++++ (<50 nM = ++++) | < 30 | < 50 | – | – | – | – | – | – |
| N#Cc1cnn2cc(-c3cnn(C4CCN(C(=O)CN5CCC(c6ccc(NC7CCC(=O)NC7=O)cc6F)CC5)CC4)c3)nc(-c3ccc(N4CCN(C(=O)Cc5ccc(F)cn5)CC4)nc3)c12 (stereo not shown) [Compound 51, 6-[1-[1-[2-[4-[4-[(2,6-dioxo-3-piperidyl)amino]-2-fluoro-phenyl]-1-piperidyl]acetyl]-4-piperidyl]pyrazol-4-yl]-4-[6-[4-[2-(5-fluoro-2-pyridyl)acetyl]piperazin-1-yl]-3-pyridyl]pyrazolo[1,5-a]pyrazine-3-carbonitrile] | – | < 50 | < 100 | – | – | – | +++ (<50% = +++) | ++++ (< 50 nM = ++++) | < 100 | ++++ (< 50 nM = ++++) | < 50 | < 30 |
